Experiments:
[1] = system: Jurkat T cells; experiment: Cell death assay (microscopy, 7-AAD/annexin V flow cytometry, Hoechst staining); format: cell-based, human; conditions: 16 hours
Method: Cell death of Jurkat T cells was examined using a double staining method with 7-AAD and annexin V-PE. Jurkat T cells (1×10^6) were indicated concentrations of 4H3MC for 16 hours, and then suspended in 200 μl of HBSS buffer comprising 7-AAD (1 μg/ml) and were incubated at 37° C. for 10 minutes. After 10 minutes, the cells were incubated with 200 μl of HBSS buffer comprising V-PE (20 μg/ml) and analyzed immediately on a BD FACS Canto™ II Flow Cytometer (BD Biosciences). All experiments were performed at least three times.
Jurkat T cells were treated with 10 μM of 4H3MC for 16 hours, and then pelleted onto a PLL-coated cover glass slide (18-mm diameter; Fisher Scientific, Pittsburgh, Pa.) using a cytospin centrifuge. The pelleted cells were fixed in 2% para-formaldehyde at room temperature for 10 minutes, and then washed three times with PBS. As control, cells were stained with TRITC-phalloidin for detecting actin. The slide was incubated for 2 minutes in PBS containing Hoechst dye (1:105) at room temperature, and then the cells were examined using an FV1000 confocal microscope.

[2] = system: PKCθ, ERK and p38 kinase; experiment: Western blot of phospho-PKCθ, ERK and p38 in activated Jurkat T cells; format: cell-based, human
Method: (§1) Jurkat T cells (5×10^5) or human PBLs (1×10^6) were stimulated with anti-CD3 (OKT3, 10 μg/ml)/CD28 (2 μg/ml) or PMA (100 nM)/A23187 (1 μM). For anti-CD3/CD28 stimulation, cells were placed on a culture dish coated with anti-CD3 antibody, and were then treated with anti-CD28 (2 μg/ml) antibody. For superantigen stimulation, T cells were incubated with SEE (1 μg/ml)-pulsed Raji B cells. For pre- or post-treatment experiments, various concentrations of 4H3MC or HCA were added 30 minutes or 60 minutes before stimulation.
Jurkat T cells were lysed by cold lysis buffer (1% Triton X-100, 150 mM NaCl, 20 mM Tris, pH 7.5, protease inhibitor and phosphatase inhibitor) for 1 hour, and then centrifuged at 4° C. at 16,000×g for 30 minutes. About 100 μg of the extract lysate was separated through 10% SDS-PAGE. Proteins were transferred into a nitrocellulose membrane by means of Trans-Blot SD semidry transfer cell (Bio-Rad, Hercules, Calif.). The membrane was blocked in 5% skim milk for 1 hour, washed, and then incubated with the indicated antibodies in 3% skim milk overnight. Excess primary antibody was removed by washing the membrane with TBST, and then the membrane was incubated with peroxidase-conjugated secondary antibody for 2 hours. After washing with TBST, bands were visualized by Western blotting detection reagent and then exposed to x-ray film.

[3] = system: Jurkat T cells and human PBLs; experiment: IL-2 secretion from activated T cells (ELISA); format: cell-based; conditions: for IC50: Jurkat T cells and human PBLs, PMA/A23187 stimulation, supernatants after 36 hours, ELISA, read-out: IC50 of inhibition of IL-2 secretion
Method: as §1
Jurkat T cells or human PBLs were stimulated in the same manner as described above with respect to T-cell stimulation and treatment with 4H3MC or HCA. At the indicated time points, the supernatants were collected, and the concentrations of IL-2 in the supernatants were measured using a Duo set Human IL-2 ELISA kit (R&D Systems).

[4] = system: Jurkat T cells and human PBLs; experiment: IL-2 mRNA expression in activated T cells (real-time PCR); format: cell-based
Method: as §1
Total RNA was isolated from Jurkat T cells using TRIZOL reagent (JBI, Korea). Reverse transcription of the RNA was performed using RT Pre-Mix (Intron, Korea). The primers and PCR conditions were as follows: […]
The amplification profile was composed of denaturation at 94° C. for 30 seconds, annealing at 60° C. for 20 seconds, and extension at 72° C. for 40 seconds. 30 cycles were preceded by denaturation at […] for 7 minutes. In some experiments, the expression levels of IL-2 mRNA were evaluated by real-time RT-PCR. Total RNA was isolated and cDNA was synthesized as described above. PCR amplification was performed in Step One Real-time PCR system (Applied Biosystems, Foster city, CA) for continuous fluorescence detection system using SYBR (Takara, Japan). Each PCR reaction was performed under the following conditions: 94° C. for 30 sec, 60° C. for 30 sec and 72° C. for 30 sec, plate read (detection of fluorescent product) for cycles, followed by extension at 72° C. for 7 min. Melting curve analysis was done to characterize the double-stranded DNA product. The levels of IL-2 mRNA normalized for GAPDH were expressed as fold changes relative to that of untreated controls. All experiments were performed at least three times.

[5] = system: atopic skin disease BALB/c mice; experiment: DNCB/mite extract-induced atopic skin disease in mice; format: in vivo; conditions: 4H3MC 50 mg/kg orally every day for 4 weeks
Method: With reference to a previously reported publication, atopic skin disease was induced using DNCB and a mite extract. BALB/c mice were divided into four groups, and then the skin was peeled off by touching each earlobe five times with a surgical tape (Seo-il Chemistry, Hwa-sung, Korea). On day 0, 20 μl of DNCB (1%) was applied to each peeled earlobe, and on day 4, 20 μl of a mite extract (10 mg/mL) was applied. DNCB and the mite extract were alternately applied once a week for 4 weeks. From day 1, 4H3MC (50 mg/kg) was administered orally everyday for 4 weeks. Using a thickness meter (Kori Seiki MFG Co., Japan), the ear thickness was measured at 24 hours after application of DNCB or the mite extract. After 28 days, blood was sampled, and the serum portions were stored at […]. After blood sampling, the ear tissue was cut and used for histopathological analysis.

[6] = target: T1, PKCθ (Homo sapiens, UniProt Q04759); experiment: PKCθ phosphorylation and accumulation at the immunological synapse (confocal imaging); format: cell-based; conditions: Jurkat T cells pretreated with 4H3MC 10 μM, conjugates with SEE-pulsed Raji B cells
T1 construct: endogenous in cells; host or cells: Jurkat T cells conjugated with SEE-pulsed Raji B cells
Method: Jurkat T cells were pretreated with 10 μM of 4H3MC for 1 hour, while Raji B cells were stained with 1 μM of CMFDA green tracker for 30 minutes. After washing twice with RPMI medium, Raji B cells were incubated with SEE (1 μg/ml) at 37° C. for 30 minutes. SEE-conjugated Raji B cells were incubated with 4H3MC-treated Jurkat T cells for 10 minutes to form an immunological synapse, and then placed on glass coverslips. The cells were fixed with 2% paraformaldehyde and washed with PBS. After washing, the cells were permeabilized with 0.1% TritonX-100 and incubated with primary antibodies (antibodies against CD3, LFA-1, t-PKCθ, p-PKCθ) overnight. On the next day, the cells were washed with PBS, and then incubated with secondary antibodies (cy3-conjugated goat anti-mouse IgG, Texas Red-conjugated goat anti-rabbit IgG antibodies) at room temperature for 1 hour. After washing, the cells were placed on a slide glass using Dako fluorescent mounting medium (Dako, Denmark), followed by drying. The dried slide samples were examined with an FV1000 confocal laser scanning microscope (Olympus), and CD3, LFA-1, t-PKCθ and p-PKCθ accumulation at the immunological synapse was observed and analyzed.

[7] = system: AP-1, NF-κB and NFAT; experiment: AP-1, NF-κB and NFAT luciferase activity assays; format: cell-based, human; conditions: transfected Jurkat T cells, 4H3MC 10 μM pretreatment 1 hour, PMA/A23187 16 hours
Method: Jurkat T cells (1.5×10^6) were transfected with 100 μl of Amaxa's Nucleofector solution (Amaxa, Germany) containing 3 μg of pGL3-AP-1, pGL3-NF-κB or pGL3-NFAT Luc plasmids, and then the cells were transferred to complete medium and cultured at 37° C. After 48 hours of transfection, the transfected cells were pretreated with 4H3MC (10 μM) for 1 hour, and then stimulated with PMA/A23187 for 16 hours. After […], the cells were harvested and lysed with a lysis buffer for luciferase assay (Promega, Madison, Wis.). Cellular debris was removed from lysed proteins by centrifugation at 16,000×g at 4° C. for 30 minutes. Luciferase activity was measured with a Centro LB 960 Luminometer (Berthold Technologies, Germany).

[8] = system: PKC; experiment: PKC activity measurement in Jurkat T cell lysate (ELISA-based kinase assay); format: biochemical, human; conditions: Jurkat T cell cytosol fraction, compound 0.01-50 μM, PMA 100 nM
Method: Jurkat T cells (1×10^6) were suspended in lysis buffer (1% Triton X-100, 150 mM NaCl, 20 mM Tris pH 7.5, protease inhibitor, phosphatase inhibitor), and then kept at 4° C. for 1 hour and centrifuged at 14,000×g for 30 minutes. Cell lysate was incubated with 4H3MC ([…]), HCA ([…]) or STSN (10 nM) at 4° C. for 30 minutes. PMA (100 nM) was added, and PKC activity was measured with a nonradioactive protein kinase assay based on ELISA. The assay was developed with tetramethylbenzidine substrate, and the color developed proportionally to PKC phosphotransferase activity. The intensity of the color was measured at 450 nm. The data were expressed as relative kinase activity.

[9] = Jurkat T cells pre-activated 30 minutes with anti-CD3/CD28 or PMA/A23187, then 4H3MC 10 μM
[10] = Jurkat T cells, 4H3MC 10 μM pretreatment 1 hour, anti-CD3/CD28 or PMA/A23187

T1 sequence (Q04759 whole entry): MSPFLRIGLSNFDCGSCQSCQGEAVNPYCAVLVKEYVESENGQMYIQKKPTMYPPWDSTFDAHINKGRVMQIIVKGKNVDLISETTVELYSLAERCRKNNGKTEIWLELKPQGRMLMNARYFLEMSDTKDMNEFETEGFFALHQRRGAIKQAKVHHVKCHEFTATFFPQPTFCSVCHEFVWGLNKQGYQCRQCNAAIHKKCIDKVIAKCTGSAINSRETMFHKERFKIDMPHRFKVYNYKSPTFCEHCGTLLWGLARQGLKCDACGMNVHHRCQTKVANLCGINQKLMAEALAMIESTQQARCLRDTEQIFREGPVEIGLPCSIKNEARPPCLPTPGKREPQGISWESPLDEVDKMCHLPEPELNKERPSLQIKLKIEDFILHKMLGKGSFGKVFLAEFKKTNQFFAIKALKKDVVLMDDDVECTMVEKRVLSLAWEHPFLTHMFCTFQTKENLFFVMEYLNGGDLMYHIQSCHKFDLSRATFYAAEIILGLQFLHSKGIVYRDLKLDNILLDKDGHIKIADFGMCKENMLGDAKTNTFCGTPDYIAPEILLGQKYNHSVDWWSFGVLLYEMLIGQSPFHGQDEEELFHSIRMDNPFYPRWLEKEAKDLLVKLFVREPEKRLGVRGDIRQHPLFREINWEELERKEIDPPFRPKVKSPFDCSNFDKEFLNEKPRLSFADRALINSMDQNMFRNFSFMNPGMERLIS

Row | Structure (SMILES) | apoptosis or necrosis ([1]; 10-100 μM) | apoptosis or necrosis by Hoechst staining ([1]; effective concentration (10 μM)) | necrosis ([1]; high concentrations (250 μM)) | phosphorylated forms of PKCθ, ERK and p38, post-treatment [2, 9] | phosphorylation of ERK and p38 [2, 10] | phosphorylation of PKCθ [2, 10] | IC50 [3] | fold effectiveness versus HCA in inhibition of IL-2 in T cells ([3]; comparison of IC50 values of 4H3MC and HCA) | time-dependent IL-2 secretion ([3]; human PBLs, 4H3MC 10 μM pretreatment 1 hour, PMA/A23187) | IL-2 expression (mRNA) ([4]; Jurkat T cells and human PBLs pretreated 1 hour with 4H3MC 0-250 μM, then PMA/A23187 or anti-CD3/CD28 for 6 hours) | concentration at which dramatic inhibition of IL-2 expression was seen ([4]; Jurkat T cells and human PBLs, pretreatment 1 hour, PMA/A23187 or anti-CD3/CD28) | IL2 mRNA expression, post-treatment [4, 9] | time-dependent IL-2 mRNA expression ([4]; Jurkat T cells, 4H3MC 10 μM pretreatment 1 hour, anti-CD3/CD28 or PMA/A23187 for various times) | ear symptoms (flushed and swollen) 28 days after induction [5] | ear thickness [5] | phosphorylation and accumulation of PKCθ at the IS [6] | luciferase activities of NF-κB, AP-1 and NFAT [7] | PKC activity [8]
1 | COc1cc(C=CC=O)ccc1O [4H3MC, 4-Hydroxy-3-methoxycinnamaldehyde] | did not induce apoptosis or necrosis | does not induce apoptosis or necrosis at its effective concentration | induced necrosis in some Jurkat T cells | significantly reduced | dramatically reduced anti-CD3/CD28- and PMA/A23187-induced phosphorylation of ERK and p38 | significantly blocked phosphorylation of PKCθ | ~2.5 µM | ~5 fold | significantly reduced | significantly inhibited IL-2 expression in a concentration-dependent manner | 2 to 10 µM | effectively reduced the expression of IL2 mRNA in pre-activated Jurkat T cells | inhibited IL-2 mRNA expression at the early time point (about 3 hours) after stimulation which lasted over 6 hours | such symptoms were alleviated | became significantly thinner from 8 days | significantly reduced the phosphorylation as well as accumulation of PKCθ at the IS | considerably reduced PMA/A23187-induced luciferase activities of NF-κB, AP-1 and NFAT | significantly inhibited PKC-specific activity with the lower effective concentration than HCA
2 | O=C(O)C=Cc1ccc(O)cc1 [HCA, p-hydroxycinnamic acid, reference compound] |  |  |  |  |  |  | 15 to 18 µM |  |  |  |  |  |  |  |  |  |  | inhibit PKC activity in vitro
